Reference: ChEMBL document CHEMBL1201862, “PubChem BioAssay data set” (2004)
Activity calls are given as the source filed them.

Experiments:
[1] = target: T1, High affinity choline transporter 1 (Homo sapiens, UniProt Q9GZV3); test: CHT inhibitors, dose response, cell-based, 5-point CRC, membrane potential dye (AID 504840); assay type: functional
T1 sequence (Q9GZV3 whole entry): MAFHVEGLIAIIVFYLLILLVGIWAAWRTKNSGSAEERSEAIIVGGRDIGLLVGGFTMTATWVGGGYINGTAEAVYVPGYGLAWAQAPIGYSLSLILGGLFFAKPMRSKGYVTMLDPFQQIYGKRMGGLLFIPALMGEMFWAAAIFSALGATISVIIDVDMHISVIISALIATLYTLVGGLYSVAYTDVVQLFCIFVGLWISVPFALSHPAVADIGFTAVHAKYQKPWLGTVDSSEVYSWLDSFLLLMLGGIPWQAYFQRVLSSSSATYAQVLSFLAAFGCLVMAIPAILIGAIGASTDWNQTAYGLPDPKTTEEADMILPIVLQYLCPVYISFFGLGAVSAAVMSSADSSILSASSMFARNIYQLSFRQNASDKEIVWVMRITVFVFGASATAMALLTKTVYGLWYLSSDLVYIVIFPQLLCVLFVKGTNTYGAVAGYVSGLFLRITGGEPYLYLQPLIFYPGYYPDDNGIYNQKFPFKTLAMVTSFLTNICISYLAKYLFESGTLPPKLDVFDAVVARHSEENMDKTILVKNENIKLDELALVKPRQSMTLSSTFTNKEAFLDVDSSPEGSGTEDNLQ

SN12K1 = test: cells; assay type: functional; conditions: Homo sapiens
[2] = Luminescence Cell-Based Dose Confirmation HTS to Identify Inhibitors of Platelet Dense Granule Release. [Related pubchem assays: 1663 (Primary HTS), 1678 (Summary of Project)]; assay type: functional
P388/ADR = test: cells; assay type: functional; conditions: Mus musculus
P388 = test: cells; assay type: functional; conditions: Mus musculus
[3] = target: T1, High affinity choline transporter 1; test: CHT inhibitors, dose response, cell-based, 10-point CRC, membrane potential dye (AID 588401); assay type: functional;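 also: membrane potential dye fluorescence of choline-evoked depolarization via CHT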
[4] = target: T2, Low molecular weight phosphotyrosine protein phosphatase (Homo sapiens, UniProt P24666); assay type: functional; conditions: read-out: IC50_Mean
T2 sequence (P24666 whole entry): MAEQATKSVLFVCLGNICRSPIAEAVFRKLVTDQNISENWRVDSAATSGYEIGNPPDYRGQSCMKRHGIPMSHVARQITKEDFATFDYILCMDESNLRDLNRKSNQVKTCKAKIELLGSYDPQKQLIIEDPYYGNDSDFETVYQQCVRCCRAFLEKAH

[5] = target: T2, Low molecular weight phosphotyrosine protein phosphatase; assay type: functional; conditions: read-out: IC50_Mean; remark: listed apart in the source
[6] = target: Ras and Rab interactor 1/Tyrosine-protein kinase ABL1 (Homo sapiens, UniProt P00519+Q13671); assay type: functional;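 also: biochemical TR-FRET dose-response test measuring inhibition of binding between Rin1 and Abl proteins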
[7] = insulin promoter down-regulators in MIN6 cells, imaging, high-content screening, mouse beta cells (AID 1628); assay type: functional
Beta Lactamase = Beta Lactamase (Pseudomonas aeruginosa, UniProt Q932Y6); test: beta-lactamase reporter inhibitor potency, dose response, artefact control for NOD2-RIPK2 interaction inhibitor project, BLA reporter cells, FRET fluorescence (AID 651552); assay type: functional, cell-based
Chain of Beta Lactamase (Q932Y6 whole entry): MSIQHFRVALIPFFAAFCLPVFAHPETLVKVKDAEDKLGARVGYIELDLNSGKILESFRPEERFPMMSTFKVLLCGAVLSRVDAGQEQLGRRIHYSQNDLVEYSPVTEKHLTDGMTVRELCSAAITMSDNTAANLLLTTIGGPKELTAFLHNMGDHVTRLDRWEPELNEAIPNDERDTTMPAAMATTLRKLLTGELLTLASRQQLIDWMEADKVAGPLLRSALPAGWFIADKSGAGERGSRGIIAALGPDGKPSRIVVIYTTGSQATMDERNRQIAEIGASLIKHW

INS1 = test: beta cell apoptosis inhibitors, cytokine rescue, dose response, luminescence, retest (AID 449756); assay type: functional, cell-based; conditions: Rattus norvegicus;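 also: cell death triggered by IL-1 beta plus TNF-alpha plus IFN-gamma mixture; protective hits raise ATP signal compared with cytokine alone wells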
[8] = cytotoxicity in MIN6 insulinoma cells, dose response, cytotoxicity control, cell-based, mouse insulinoma (AID 2122); assay type: functional;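 also: confirmatory high-throughput counterscreen run to flag cytotoxic compounds; mouse MIN-6 beta cells carrying an insulin promoter eGFP reporter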
[9] = Fluorescence-based cell-based high throughput dose response assay for inhibitors of the interaction of nucleotide-binding oligomerization domain containing 2 (NOD2) and the receptor-interacting serine-threonine kinase 2 (RIPK2).; assay type: functional, Homo sapiens; conditions: Homo sapiens
[10] = target: Photoreceptor-specific nuclear receptor (Homo sapiens, UniProt Q9Y5X4); assay type: functional, cell-based;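 also: CHO-S cells with Gal4-NCOR and VP16-NR2E3 two-hybrid luciferase reporter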
Chain of Photoreceptor-specific nuclear receptor (Q9Y5X4 whole entry, the tested form may be a part): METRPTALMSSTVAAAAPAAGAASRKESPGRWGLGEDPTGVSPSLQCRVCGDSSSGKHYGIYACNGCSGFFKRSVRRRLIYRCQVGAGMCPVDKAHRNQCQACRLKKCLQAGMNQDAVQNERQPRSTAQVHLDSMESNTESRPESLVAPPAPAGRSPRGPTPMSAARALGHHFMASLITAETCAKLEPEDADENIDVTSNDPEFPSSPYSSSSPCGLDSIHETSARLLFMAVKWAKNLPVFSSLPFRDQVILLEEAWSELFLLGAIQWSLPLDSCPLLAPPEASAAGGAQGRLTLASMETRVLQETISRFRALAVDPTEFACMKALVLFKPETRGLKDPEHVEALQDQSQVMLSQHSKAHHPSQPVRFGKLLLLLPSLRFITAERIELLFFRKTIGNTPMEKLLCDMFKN

[11] = target: T3, Calpain-2 catalytic subunit (Sus scrofa, UniProt P43367); test: pig calpain II inhibitor potency, dose response, biochemical, fluorogenic peptide substrate (AID 1420); assay type: functional
T3 sequence (P43367 whole entry): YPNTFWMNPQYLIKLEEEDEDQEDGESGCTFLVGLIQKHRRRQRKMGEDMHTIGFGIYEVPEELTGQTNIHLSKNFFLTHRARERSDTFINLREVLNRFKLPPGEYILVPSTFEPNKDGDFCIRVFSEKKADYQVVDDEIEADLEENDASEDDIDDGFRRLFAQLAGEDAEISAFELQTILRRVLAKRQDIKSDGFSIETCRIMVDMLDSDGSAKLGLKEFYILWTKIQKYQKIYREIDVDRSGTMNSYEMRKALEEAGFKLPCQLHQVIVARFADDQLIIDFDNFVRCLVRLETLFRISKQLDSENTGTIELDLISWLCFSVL

[12] = target: T4, Short transient receptor potential channel 4 (Mus musculus, UniProt Q9QUQ5); test: mouse TRPC4 channel inhibitors, dose response, cell-based, HEK293 TRPC4/mu-opioid, Fluo-4 calcium (AID 434942); assay type: functional;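 also: potency of inhibitors blocking the TRPC4 calcium response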
T4 sequence (Q9QUQ5 whole entry): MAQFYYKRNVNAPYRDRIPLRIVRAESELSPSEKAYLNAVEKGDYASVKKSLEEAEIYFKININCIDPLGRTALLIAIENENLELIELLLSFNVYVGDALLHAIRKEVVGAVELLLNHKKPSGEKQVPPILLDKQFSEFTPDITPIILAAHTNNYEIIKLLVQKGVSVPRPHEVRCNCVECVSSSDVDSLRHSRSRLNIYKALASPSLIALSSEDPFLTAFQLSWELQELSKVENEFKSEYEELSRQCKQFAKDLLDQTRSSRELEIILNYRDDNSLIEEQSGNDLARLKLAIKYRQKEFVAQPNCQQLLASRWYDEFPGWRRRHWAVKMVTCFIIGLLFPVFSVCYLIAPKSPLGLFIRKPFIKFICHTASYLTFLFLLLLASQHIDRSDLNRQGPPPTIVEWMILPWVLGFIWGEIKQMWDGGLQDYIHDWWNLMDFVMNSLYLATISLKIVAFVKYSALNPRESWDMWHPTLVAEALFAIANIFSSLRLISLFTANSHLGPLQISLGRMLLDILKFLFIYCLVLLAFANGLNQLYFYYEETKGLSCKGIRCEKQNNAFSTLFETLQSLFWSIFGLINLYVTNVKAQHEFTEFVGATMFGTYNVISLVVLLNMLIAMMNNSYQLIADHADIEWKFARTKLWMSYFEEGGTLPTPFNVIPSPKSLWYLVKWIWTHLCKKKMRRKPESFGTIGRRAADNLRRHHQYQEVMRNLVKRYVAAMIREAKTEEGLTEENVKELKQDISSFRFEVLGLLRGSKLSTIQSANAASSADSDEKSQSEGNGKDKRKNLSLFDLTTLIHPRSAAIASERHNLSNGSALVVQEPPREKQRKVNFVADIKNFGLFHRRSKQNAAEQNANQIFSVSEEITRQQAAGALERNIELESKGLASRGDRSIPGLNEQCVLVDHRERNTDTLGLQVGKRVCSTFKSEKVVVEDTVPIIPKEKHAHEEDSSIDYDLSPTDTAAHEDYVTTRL

[13] = target: T5, Zinc finger protein mex-5 (Caenorhabditis elegans, UniProt Q9XUB2); test: MEX-5/TCR-2 RNA interaction inhibitors, dose response, biochemical, C. elegans, fluorescence polarization (AID 1960)
T5 sequence (Q9XUB2 whole entry): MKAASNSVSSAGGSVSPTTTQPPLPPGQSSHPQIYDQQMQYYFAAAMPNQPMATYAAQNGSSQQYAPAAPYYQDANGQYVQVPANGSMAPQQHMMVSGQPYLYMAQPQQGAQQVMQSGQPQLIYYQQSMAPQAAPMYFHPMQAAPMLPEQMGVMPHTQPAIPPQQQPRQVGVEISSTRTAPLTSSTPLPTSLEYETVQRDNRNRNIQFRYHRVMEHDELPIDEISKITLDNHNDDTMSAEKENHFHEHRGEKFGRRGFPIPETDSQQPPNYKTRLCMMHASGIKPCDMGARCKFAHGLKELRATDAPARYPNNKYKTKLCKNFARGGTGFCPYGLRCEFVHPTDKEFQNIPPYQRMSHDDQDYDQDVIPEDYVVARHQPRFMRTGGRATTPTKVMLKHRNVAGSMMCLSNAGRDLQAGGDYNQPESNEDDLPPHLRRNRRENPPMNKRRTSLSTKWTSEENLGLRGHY

Vero = Vero cell cytotoxicity, cytotoxicity control for flavivirus capping enzyme inhibitors (AID 588742); assay type: functional; conditions: Chlorocebus sabaeus
Cytochrome P450 2C9 = Cytochrome P450 2C9 (Homo sapiens, UniProt P11712)
Chain of Cytochrome P450 2C9 (P11712 whole entry, the tested form may be a part): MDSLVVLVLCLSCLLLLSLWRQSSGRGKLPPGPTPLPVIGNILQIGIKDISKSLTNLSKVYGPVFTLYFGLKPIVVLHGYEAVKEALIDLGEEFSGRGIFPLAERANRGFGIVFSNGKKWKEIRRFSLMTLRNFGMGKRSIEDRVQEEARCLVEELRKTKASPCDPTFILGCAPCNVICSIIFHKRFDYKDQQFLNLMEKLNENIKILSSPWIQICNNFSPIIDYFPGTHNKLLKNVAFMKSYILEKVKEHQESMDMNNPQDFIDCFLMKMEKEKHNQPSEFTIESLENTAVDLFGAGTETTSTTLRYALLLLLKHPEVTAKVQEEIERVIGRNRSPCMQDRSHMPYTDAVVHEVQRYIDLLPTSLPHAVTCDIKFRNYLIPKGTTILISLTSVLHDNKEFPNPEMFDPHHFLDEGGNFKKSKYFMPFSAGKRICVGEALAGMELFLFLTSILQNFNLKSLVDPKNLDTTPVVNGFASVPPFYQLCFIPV

[14] = target: T6, RNA-binding protein pos-1 (Caenorhabditis elegans, UniProt G5EF15); test: inhibitors of POS-1/mex-3 RNA binding, dose response, biochemical, fluorescence polarization (AID 1964);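 also: purified POS-1 fused to maltose binding protein made in E. coli; potency of compounds blocking POS-1 binding to fluorescent RNA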
T6 sequence (G5EF15 whole entry): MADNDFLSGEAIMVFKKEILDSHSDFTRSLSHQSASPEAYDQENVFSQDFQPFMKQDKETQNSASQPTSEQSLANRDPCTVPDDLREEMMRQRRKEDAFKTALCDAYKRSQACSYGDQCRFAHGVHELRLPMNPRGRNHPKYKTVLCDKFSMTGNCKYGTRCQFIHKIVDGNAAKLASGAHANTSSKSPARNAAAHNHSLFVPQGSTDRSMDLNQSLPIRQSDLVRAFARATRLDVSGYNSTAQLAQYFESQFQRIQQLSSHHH

Cytochrome P450 1A2 = target: T7, Cytochrome P450 1A2 (Homo sapiens, UniProt P05177);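 also: PubChem cytochrome P450 panel assay, CYP1A2 panel member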
T7 sequence (P05177 whole entry): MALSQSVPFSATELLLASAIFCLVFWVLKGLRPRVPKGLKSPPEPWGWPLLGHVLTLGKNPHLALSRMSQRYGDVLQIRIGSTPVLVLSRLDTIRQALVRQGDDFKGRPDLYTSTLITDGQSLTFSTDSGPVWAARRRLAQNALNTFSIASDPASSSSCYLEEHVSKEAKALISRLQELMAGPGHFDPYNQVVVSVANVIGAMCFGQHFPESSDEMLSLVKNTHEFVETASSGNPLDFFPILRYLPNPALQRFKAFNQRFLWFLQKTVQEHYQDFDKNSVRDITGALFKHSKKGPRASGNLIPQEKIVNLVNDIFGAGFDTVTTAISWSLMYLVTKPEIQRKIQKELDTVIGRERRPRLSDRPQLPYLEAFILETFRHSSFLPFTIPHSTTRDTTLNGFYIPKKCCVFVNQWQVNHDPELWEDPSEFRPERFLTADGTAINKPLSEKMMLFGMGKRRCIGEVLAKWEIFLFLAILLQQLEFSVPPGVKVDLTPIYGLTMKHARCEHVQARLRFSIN

Genome polyprotein = Genome polyprotein (dengue virus type 2, UniProt P29990); test: Dengue-2 NS5 methyltransferase inhibitors, primary screen, biochemical, confirmation dose response (AID 588689); assay type: functional
Chain of Genome polyprotein (P29990 2492-3391 limits assumed): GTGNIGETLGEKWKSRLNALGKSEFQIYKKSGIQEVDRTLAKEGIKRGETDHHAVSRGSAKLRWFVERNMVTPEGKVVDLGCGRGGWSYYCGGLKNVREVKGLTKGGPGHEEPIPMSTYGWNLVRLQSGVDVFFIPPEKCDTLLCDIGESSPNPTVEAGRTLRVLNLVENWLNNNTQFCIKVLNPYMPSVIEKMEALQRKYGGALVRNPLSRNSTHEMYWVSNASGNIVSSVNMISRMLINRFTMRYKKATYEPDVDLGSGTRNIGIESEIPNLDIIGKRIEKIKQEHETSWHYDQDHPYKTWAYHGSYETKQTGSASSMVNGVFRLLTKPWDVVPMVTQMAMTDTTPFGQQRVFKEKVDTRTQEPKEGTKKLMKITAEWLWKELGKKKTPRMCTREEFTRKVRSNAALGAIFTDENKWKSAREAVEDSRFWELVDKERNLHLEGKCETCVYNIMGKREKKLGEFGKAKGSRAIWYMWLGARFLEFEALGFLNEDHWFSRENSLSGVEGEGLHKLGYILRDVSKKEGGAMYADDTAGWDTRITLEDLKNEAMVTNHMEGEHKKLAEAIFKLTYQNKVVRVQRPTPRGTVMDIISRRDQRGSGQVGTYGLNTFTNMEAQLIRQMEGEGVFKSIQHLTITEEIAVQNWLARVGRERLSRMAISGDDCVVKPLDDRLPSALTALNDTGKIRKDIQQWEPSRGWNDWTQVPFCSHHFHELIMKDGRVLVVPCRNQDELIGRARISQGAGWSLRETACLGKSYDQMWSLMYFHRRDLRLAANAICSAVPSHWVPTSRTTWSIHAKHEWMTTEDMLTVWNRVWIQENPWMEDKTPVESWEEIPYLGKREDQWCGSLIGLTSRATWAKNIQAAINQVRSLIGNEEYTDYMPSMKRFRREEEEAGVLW

[15] = target: Hepatocyte nuclear factor 4-alpha (Homo sapiens, UniProt P41235); assay type: functional, cell-based;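 also: biochemical luminescence-based dose-response counterscreen measuring inhibition of HNF4 dimerization, run alongside a screen for blockers of ABHD5–perilipin-5 interaction; split luciferase complementation of HNF4 fusion proteins in cell lysate measuring dimerization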
Chain of Hepatocyte nuclear factor 4-alpha (P41235 whole entry, the tested form may be a part): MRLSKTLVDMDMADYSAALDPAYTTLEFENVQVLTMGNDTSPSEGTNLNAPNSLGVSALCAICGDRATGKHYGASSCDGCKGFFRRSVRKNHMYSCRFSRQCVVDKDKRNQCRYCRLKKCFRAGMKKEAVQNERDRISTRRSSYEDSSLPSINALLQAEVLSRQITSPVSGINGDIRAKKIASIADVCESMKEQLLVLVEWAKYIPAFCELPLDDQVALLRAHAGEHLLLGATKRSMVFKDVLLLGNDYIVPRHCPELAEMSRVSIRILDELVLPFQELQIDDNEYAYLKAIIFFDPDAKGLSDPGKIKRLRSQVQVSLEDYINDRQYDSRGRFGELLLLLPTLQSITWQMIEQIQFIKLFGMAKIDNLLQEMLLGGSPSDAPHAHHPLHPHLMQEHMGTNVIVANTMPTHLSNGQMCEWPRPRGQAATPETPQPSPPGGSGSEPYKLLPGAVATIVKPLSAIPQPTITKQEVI

Fatty acid synthase [16] = target: T8, Fatty acid synthase (Homo sapiens, UniProt P49327); test: FAS thioesterase domain inhibitors, dose response, biochemical, endpoint fluorescence intensity, uHTS hits (AID 624327); assay type: functional;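 also: fluorescence from hydrolysis of an O-methyl fluorescein acyl ester substrate by the enzyme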
T8 sequence (P49327 whole entry, the tested form may be a part): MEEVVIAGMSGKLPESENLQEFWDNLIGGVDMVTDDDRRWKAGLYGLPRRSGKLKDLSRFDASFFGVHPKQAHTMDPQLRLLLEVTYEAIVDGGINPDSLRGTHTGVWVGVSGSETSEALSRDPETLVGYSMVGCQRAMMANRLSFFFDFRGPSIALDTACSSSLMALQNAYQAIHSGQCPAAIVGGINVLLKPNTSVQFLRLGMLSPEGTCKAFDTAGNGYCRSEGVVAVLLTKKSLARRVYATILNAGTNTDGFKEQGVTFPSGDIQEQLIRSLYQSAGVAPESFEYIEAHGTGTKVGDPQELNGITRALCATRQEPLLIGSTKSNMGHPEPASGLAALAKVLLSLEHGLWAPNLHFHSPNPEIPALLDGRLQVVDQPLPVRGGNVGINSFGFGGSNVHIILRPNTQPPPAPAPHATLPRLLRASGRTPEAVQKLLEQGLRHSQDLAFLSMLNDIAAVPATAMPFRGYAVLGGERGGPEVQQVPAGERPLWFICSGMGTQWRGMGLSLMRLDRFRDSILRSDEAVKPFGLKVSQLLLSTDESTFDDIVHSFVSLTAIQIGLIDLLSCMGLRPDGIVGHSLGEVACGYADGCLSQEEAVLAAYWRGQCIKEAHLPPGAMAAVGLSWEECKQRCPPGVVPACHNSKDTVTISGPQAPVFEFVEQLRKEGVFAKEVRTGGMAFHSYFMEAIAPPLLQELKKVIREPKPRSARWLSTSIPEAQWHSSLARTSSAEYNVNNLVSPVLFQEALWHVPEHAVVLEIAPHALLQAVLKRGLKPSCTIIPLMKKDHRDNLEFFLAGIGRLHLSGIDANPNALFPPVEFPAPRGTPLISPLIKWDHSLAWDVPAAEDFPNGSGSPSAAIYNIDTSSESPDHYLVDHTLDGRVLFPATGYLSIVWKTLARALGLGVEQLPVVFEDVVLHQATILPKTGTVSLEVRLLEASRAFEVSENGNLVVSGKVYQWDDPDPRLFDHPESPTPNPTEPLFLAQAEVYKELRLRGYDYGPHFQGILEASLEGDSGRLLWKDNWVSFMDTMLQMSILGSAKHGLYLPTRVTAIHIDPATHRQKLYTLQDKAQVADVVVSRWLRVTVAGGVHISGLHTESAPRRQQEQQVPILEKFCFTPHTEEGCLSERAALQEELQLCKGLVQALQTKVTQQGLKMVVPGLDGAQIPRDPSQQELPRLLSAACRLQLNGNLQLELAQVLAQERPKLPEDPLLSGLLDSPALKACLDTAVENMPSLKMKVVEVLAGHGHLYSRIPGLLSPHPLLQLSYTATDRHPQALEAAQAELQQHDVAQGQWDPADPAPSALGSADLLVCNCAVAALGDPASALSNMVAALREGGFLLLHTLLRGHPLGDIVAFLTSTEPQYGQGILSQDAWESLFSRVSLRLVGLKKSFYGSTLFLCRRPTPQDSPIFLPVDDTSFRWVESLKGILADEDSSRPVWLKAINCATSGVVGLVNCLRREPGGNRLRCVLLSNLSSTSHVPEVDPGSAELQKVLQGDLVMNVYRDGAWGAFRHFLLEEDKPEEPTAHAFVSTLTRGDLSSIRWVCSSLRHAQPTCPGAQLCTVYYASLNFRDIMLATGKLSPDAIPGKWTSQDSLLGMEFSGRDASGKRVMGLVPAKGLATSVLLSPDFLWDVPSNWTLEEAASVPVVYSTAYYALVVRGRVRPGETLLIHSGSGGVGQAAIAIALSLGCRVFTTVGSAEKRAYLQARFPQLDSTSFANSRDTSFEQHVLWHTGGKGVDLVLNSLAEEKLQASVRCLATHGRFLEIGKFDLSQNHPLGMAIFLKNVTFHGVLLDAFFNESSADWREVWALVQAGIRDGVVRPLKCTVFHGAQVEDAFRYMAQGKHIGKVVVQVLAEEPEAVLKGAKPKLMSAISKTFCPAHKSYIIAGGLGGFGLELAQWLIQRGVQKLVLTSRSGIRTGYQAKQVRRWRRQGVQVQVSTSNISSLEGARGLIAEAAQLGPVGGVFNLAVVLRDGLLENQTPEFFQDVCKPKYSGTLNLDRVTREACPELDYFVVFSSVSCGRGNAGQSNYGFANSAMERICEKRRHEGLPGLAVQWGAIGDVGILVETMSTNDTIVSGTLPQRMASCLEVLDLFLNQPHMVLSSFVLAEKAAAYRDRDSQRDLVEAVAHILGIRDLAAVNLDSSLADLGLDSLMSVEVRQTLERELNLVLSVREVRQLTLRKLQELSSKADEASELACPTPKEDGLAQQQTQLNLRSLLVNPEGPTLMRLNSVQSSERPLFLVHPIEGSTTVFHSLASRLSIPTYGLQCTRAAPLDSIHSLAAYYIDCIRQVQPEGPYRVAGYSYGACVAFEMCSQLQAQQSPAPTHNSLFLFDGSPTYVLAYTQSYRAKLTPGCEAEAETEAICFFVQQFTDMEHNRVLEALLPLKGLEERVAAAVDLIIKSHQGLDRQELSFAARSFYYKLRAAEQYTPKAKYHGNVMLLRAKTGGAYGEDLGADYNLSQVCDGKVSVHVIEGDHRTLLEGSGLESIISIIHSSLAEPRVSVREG

Fatty acid synthase [17] = target: T8, Fatty acid synthase; test: FAS thioesterase domain inhibitors, dose response, biochemical, kinetic fluorescence intensity (AID 624326); assay type: functional;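 also: rate of fluorescence rise from hydrolysis of a fluorogenic O-methyl fluorescein ester substrate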

Nc1ncnc2c1ncn2C1OC(CO)C(O)C1O (stereo not given)
IC50 [1]: 0.588 µM (active)
GI50 (SN12K1): > 74 µM (inactive)
EC50 [2]: 1.55 µM (active)
GI50 (P388/ADR): 14.5 µM (inactive)
GI50 (P388): 16.4 µM (inactive)
IC50 [3]: 0.515 µM (active)

CN(C)c1nc(N)nc(/C(C#N)=C/C2CC3C=CC2C3)n1 (stereo not given)
IC50 [4]: 10.6 µM (active)
IC50 [5]: 25.2 µM (inactive)

COc1ccc(CCNC(=O)CSc2nc(C)nc3c2c(=O)n(C)c(=O)n3C)cc1OC
IC50 [6]: 13.9 µM (inactive)

Cc1cc(N2CCN(C)CC2)ccc1NC(=O)c1c2c(nc3ccccc13)CCN(Cc1ccccc1)C2
IC50 [7]: 1.37 µM (active)
IC50 (Beta Lactamase): 12.3 µM (inactive)
AC50 (INS1): 4.71 µM (active)
IC50 [8]: 1.05 µM (active)
IC50 [9]: 11 µM (inactive)

CN1CCN(c2oc(Cc3cccc4ccccc34)nc2C#N)CC1
IC50 [1]: 1.66 µM (active)
IC50 [3]: 4.74 µM (active)

O=c1c(Cl)c(N2CCN(c3ccc(F)cc3)CC2)cnn1C12CC3CC(CC(C3)C1)C2
IC50 [10]: 1.93 µM (active)
IC50 [11]: > 50 µM (not active)

COc1cccc(Nc2c(Nc3cccc(OC)c3)c(=O)c2=O)c1
IC50 [4]: 18.4 µM (active)
IC50 [5]: 10.4 µM (active)

CC1CCCCN1CCCNC(=O)c1nn(C)c2c1CSc1ccccc1-2 (stereo not given)
IC50 [1]: 5.6 µM (active)
EC50 [12]: 4.22 µM (active)
IC50 [3]: 10.6 µM (active)

COc1cc(/C=N\Nc2ccc([N+](=O)[O-])cc2)ccc1OCC(=O)Nc1ccc(C)c(C)c1
EC50 [13]: 234 µM (inconclusive)
CC50 (Vero): > 40 µM (active)
AC50 (Cytochrome P450 2C9): 3.16 µM (inconclusive)
EC50 [14]: > 300 µM (not active)
AC50 (Cytochrome P450 1A2): 7.08 µM (inconclusive)
IC50 (Genome polyprotein): 26.3 µM (active)

CCCCCc1c(-c2ccc(OC)c(OC)c2)ncn1CCc1ccccc1OC
IC50 [10]: 7.43 µM (active)

CC(C)(C)NC(=O)C(C1CC1)n1c(=O)c(-c2ccco2)nc2ccccc21 (stereo not given)
IC50 [15]: 1.72 µM (active)

CCOC(=O)[C@]12Cc3cc(Cl)ccc3[C@H]1N(C1CCCCC1)C(=O)c1ccccc12
IC50 (Beta Lactamase): 19.9 µM (inactive)
IC50 (Fatty acid synthase [16]): 6.4 µM (active)
IC50 (Fatty acid synthase [17]): 4.57 µM (active)
IC50 [9]: 1.45 µM (active)
